This note sets out measurements from PubChem BioAssay AID1996.

The kinetic solubility is the concentration staying in solution when a stock, usually in DMSO, is diluted into the medium.

In brackets after ≈: the same amount, converted by molar mass.

For this series the following is noted: buffer; pH 7.4; 200.0 µM.
As to `O=S(=O)(c1cccc(C(F)(F)F)c1)c1ccc(O)cn1`, the kinetic solubility amounted to 0.0411 mg/mL (≈ 136 µM).

Consider `O=C(Nc1ccccc1)NN(C(=O)CCl)c1ccccc1`, for which the solubility (kinetic) is over 0.0456 mg/mL.

Take `COCCCNC(=O)/C(C#N)=C/c1cc(C)[nH]c1C`: the solubility (kinetic) is over 0.0392 mg/mL.

Take `Nc1nc(Cl)cc(=O)n1Cc1ccc(Cl)cc1`: the solubility (kinetic) is 0.0281 mg/mL (≈ 104 µM).

Take `CC(=O)Oc1cccc(Nc2ncnc3ccccc23)c1`: the kinetic solubility was over 0.0419 mg/mL.

For the molecule `O=C(NCCc1ccc(F)cc1)c1ccc2nccnc2c1`, the solubility (kinetic) was determined as 0.0416 mg/mL (≈ 141 µM).

For the molecule `Clc1cccc(N2CCN(c3ncnc4nc[nH]c34)CC2)c1`, the kinetic solubility is 0.0008 mg/mL (≈ 2.54 µM).

In the case of `C=C(C)C(=O)Oc1ccc(N2C(=O)[C@@H]3C4C=CC(C4)[C@@H]3C2=O)cc1`, the kinetic solubility came out at 0.0101 mg/mL (≈ 31.2 µM).

`CCC(C)[C@H](NC(=O)N1CCC(C)CC1)C(=O)OC` (stereo partly specified) showed a kinetic solubility of over 0.0406 mg/mL.

Turning to `Cc1ccc(S(=O)(=O)Cc2ccc([N+](=O)[O-])cc2)cc1`, the kinetic solubility is under 0.0006 mg/mL.

On to `CC(CN(C)C)CN1c2ccccc2CCc2ccccc21.O=C(O)/C=C\C(=O)O` (stereo unspecified), for which the kinetic solubility was over 0.0616 mg/mL.

In the case of `CC(OC(=O)CC1CCCCC1)C(=O)Nc1cccc(C#N)c1` (stereo unspecified), the kinetic solubility was 0.0371 mg/mL (≈ 118 µM).

For the molecule `Cn1cc(SCC(=O)NC2CCCCC2)c2ccccc21`, the kinetic solubility was found to be 0.0095 mg/mL (≈ 31.4 µM).

On to `COc1ccc(OC)c(NC(=O)c2nc(-c3ccccc3)oc2C)c1`, for which the kinetic solubility is 0.0031 mg/mL (≈ 9.16 µM).

Turning to `CCOC(=O)CSc1nc(C)c2cccc(C)c2n1`, the kinetic solubility amounted to 0.0306 mg/mL (≈ 111 µM).

`CC(=O)OCC(=O)Nc1ccccc1C` came in with a solubility (kinetic) of over 0.0311 mg/mL.

The molecule `CCn1cc(C(=O)NCc2ccc(OC)cc2)c(=O)c2ccc(C)nc21` registered a solubility (kinetic) of 0.0004 mg/mL (≈ 1.14 µM).

`COc1cc2ccccc2cc1C(=O)N1CCN(c2ccccn2)CC1`: the kinetic solubility was over 0.0521 mg/mL.

On to `COc1ccc(CCNS(=O)(=O)c2ccc3[nH]c(=O)[nH]c3c2)cc1`, for which the kinetic solubility is 0.0113 mg/mL (≈ 32.5 µM).

On to `Cc1ccc(N=C2c3ccccc3C(=O)C2[N+](=O)[O-])cc1C` (stereo unspecified), for which the kinetic solubility worked out at 0.0088 mg/mL (≈ 29.9 µM).

The molecule `O=C(O)/C=C/c1cccc(NC(=O)Nc2ccc([N+](=O)[O-])cc2)c1` showed a solubility (kinetic) of over 0.0491 mg/mL.

Regarding `Cc1ccc(NC(=O)CCC(=O)c2cccs2)cc1F`, the solubility (kinetic) came out at 0.0043 mg/mL (≈ 14.8 µM).

`Cc1cc(C)cc(CC2CC(=O)N(c3ccc([N+](=O)[O-])cc3)C2=O)c1` (stereo unspecified): the kinetic solubility was under 0.0004 mg/mL.

For `CC1(C)C(C(=O)N2CCN(c3ccc(Cl)cc3)CC2)C1(C)C`, the kinetic solubility came out at 0.0005 mg/mL (≈ 1.56 µM).

In turn, `CC(C)CC(=O)N1CCN(Cc2ccc(C(F)(F)F)cc2)CC1` gave a solubility (kinetic) of 0.0472 mg/mL (≈ 144 µM).

On to `COc1cc(NC(=O)C[n+]2ccc(C(=O)c3ccccc3)cc2)cc(OC)c1.[Cl-]`, for which the solubility (kinetic) was over 0.0619 mg/mL.

For the molecule `COC(=O)c1c(C)[nH]c(C(=O)OCc2csc(CC(=O)Nc3ccccc3C)n2)c1C`, the kinetic solubility was 0.0074 mg/mL (≈ 16.8 µM).

As to `Cc1cnc(C(=O)OCC(=O)N2CC(C)CC(C)C2)cn1` (stereo unspecified), the kinetic solubility came out at 0.0433 mg/mL (≈ 149 µM).

The molecule `C=CCOc1c(Cl)cc(C(=S)N2CCCC2)cc1OCC` registered a solubility (kinetic) of 0.0057 mg/mL (≈ 17.5 µM).

`O=C(O)c1ccccc1Nc1ccc([N+](=O)[O-])c2nonc12` returned a kinetic solubility of 0.0295 mg/mL (≈ 98.3 µM).

`CC(=O)Nc1ccc(-c2csc(NCc3ccccc3)n2)cc1`: the kinetic solubility is 0.0339 mg/mL (≈ 105 µM). The solubility kinetic values of the last two molecules are within 1.5-fold of each other.

In turn, `CCOC(=O)C1CCN(C(=O)COC(=O)/C=C/c2ccccc2)CC1` had a kinetic solubility of over 0.0518 mg/mL.

As for `OCC[NH+](CCO)CC(O)COc1ccc(Br)cc1.[Cl-]` (stereo unspecified), the solubility (kinetic) is over 0.0556 mg/mL.

In the case of `Cc1nc(N)ncc1-c1ccc2c(c1)OCO2`, the solubility (kinetic) stood at 0.0108 mg/mL (≈ 47.1 µM).

Consider `CCOC(=O)NN1C(=O)c2ccccc2NC1c1ccccn1` (stereo unspecified), for which the kinetic solubility is over 0.0468 mg/mL.

Turning to `S=C1NCN(C2CCCCC2)CN1CCc1ccccc1`, the solubility (kinetic) stood at 0.0161 mg/mL (≈ 53.1 µM).

With `COc1ccc(CNC(=O)Nc2cc(C)cc(C)c2)cc1`, the solubility (kinetic) came to 0.0008 mg/mL (≈ 2.81 µM).

`COCCN(CC(=O)Nc1cccc(C)c1C)C(=O)C1(c2ccc(Cl)cc2)CCC1` displayed a solubility (kinetic) of 0.0338 mg/mL (≈ 78.8 µM).

The molecule `CC(=O)N(c1ccc(Cl)cc1)c1cn(C(C)=O)c2ccccc12` yielded a kinetic solubility of over 0.049 mg/mL.

`O=C(NCCSCc1c(F)cccc1Cl)Nc1ccccc1` registered a kinetic solubility of 0.0025 mg/mL (≈ 7.38 µM).

For `COc1cccc(NC(=S)NCc2ccccc2)c1`, the solubility (kinetic) was over 0.0409 mg/mL.

`NCCc1nnc(SCC(=O)Nc2cccc(Cl)c2)o1`: the kinetic solubility is over 0.0469 mg/mL.

In turn, `O=C(O)CN1C(=O)S/C(=C\c2ccc3c(c2)OCO3)C1=O` had a solubility (kinetic) of 0.041 mg/mL (≈ 133 µM).

In the case of `CC[C@H](C)[C@H](NC(N)=O)C(=O)Nc1ccc2c(c1)OCO2`, the solubility (kinetic) amounted to 0.0386 mg/mL (≈ 132 µM).

For `CCC(=O)Nc1ccc(NCc2ccc(-c3ccccc3)cc2)cc1`, the solubility (kinetic) is 0.0286 mg/mL (≈ 86.6 µM). The solubility kinetic values of the last two molecules are within 1.5-fold of each other.

For the molecule `Cc1cc(C)c(S(=O)(=O)Nc2ccc(Cl)cn2)c(C)c1`, the solubility (kinetic) was found to be 0.0018 mg/mL (≈ 5.79 µM). Compared with the last molecule, the solubility kinetic is about 16-fold lower.

Take `N#C/C(=C\c1ccc[nH]1)C(=O)Nc1ccccc1[N+](=O)[O-]`: the kinetic solubility was found to be 0.0004 mg/mL (≈ 1.42 µM). Compared with the last molecule, the solubility kinetic is about 4.5-fold lower.

In turn, `O=C(Nc1ccccc1N1CCCC1)c1ccc2ccccc2c1` gave a solubility (kinetic) of 0.0027 mg/mL (≈ 8.53 µM).

`CCC(=O)c1ccc(OCC(=O)Nc2nc(C)cs2)cc1` showed a solubility (kinetic) of 0.0089 mg/mL (≈ 29.2 µM).

`CC(C)c1cc(NCCOCCO)n2c(nc3ccccc32)c1C#N`: the solubility (kinetic) turned out to be 0.0078 mg/mL (≈ 23 µM).

For the molecule `CCCOc1ccc(CNC(=O)Cc2cccs2)cc1`, the kinetic solubility came to 0.0199 mg/mL (≈ 68.8 µM).
